Data from patent US20250101041A1, “POSITIVE ALLOSTERIC MODULATORS OF THE MUSCARINIC ACETYLCHOLINE RECEPTOR M4” (Vanderbilt University, priority 2022, published 2025).

Target: T1, human mAChR M4 (Homo sapiens, UniProt P08173)
T1 construct: expressed in transfected cells; host or cells: CHO-K1 (American Type Culture Collection), stably expressing hM4 and Gqi5
T1 sequence (P08173 1-479): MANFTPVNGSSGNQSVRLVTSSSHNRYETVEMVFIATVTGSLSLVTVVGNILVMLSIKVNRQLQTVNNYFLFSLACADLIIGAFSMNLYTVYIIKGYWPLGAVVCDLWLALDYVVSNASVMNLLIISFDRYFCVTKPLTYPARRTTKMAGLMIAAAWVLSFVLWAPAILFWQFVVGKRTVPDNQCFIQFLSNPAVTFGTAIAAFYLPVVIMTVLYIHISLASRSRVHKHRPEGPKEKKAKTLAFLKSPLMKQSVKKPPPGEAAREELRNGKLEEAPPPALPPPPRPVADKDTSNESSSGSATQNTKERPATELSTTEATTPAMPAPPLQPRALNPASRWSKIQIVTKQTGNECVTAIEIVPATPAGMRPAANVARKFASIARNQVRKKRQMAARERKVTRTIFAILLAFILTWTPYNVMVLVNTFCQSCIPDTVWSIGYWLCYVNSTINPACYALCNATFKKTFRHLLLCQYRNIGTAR
Assay: mAChR M4 cell-based functional assay: calcium mobilization (Fluo-4, FDSS), potentiation of EC20 acetylcholine response in hM4-Gqi5 CHO-K1 cells
Conditions: human M4; for Emax at 30 µM: CHO-K1, % ACh maximum at 30 μM; for EC50: potentiation of EC20 acetylcholine response, calcium mobilization
Method in brief: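 CHO-K1 cells stably co-expressing human M4 and chimeric Gqi5, loaded with Fluo-4 AM (50 min, 37 °C). Compounds in 11-point 1:3 series added first; EC20 acetylcholine added at 144 s and again at 230 s. Calcium read on FDSS at 1 Hz; EC50 and Emax from four-parameter logistic fit of potentiated EC20 response.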

Emax at 30 µM | EC50 | Structure (SMILES)
84% | 124 nM | Cc1cc(-c2cnc3c(c2)CN(c2nn4c(=O)cc(C)nc4c(C)c2C)CC3)ccn1 [Compound 1-243, 2,8,9-trimethyl-7-(3-(2-methylpyridin-4-yl)-7,8-dihydro-1,6-naphthyridin-6(5H)-yl)-4H-pyrimido[1,2-b] pyridazin-4-one]
83% | 245 nM | COCc1cc(=O)n2nc(N3CCc4ncc(-c5ccccc5F)cc4C3)c(C)cc2n1 [Compound 1-360, 7-(3-(2-fluorophenyl)-7,8-dihydro-1,6-naphthyridin-6(5H)-yl)-2-(methoxymethyl)-8-methyl-4H-pyrimido[1,2-b] pyridazin-4-one]
96% | 184 nM | Cc1cncc(Nc2cnc3c(c2)CN(c2nn4c(=O)ccnc4cc2C)CC3)c1 [Compound 2-133, 8-methyl-7-(3-((5-methylpyridin-3-yl)amino)-7,8-dihydro-1,6-naphthyridin-6(5H)-yl)-4H-pyrimido[1,2-b]pyridazin-4-one]
52% | 296 nM | Cc1cc(=O)n2nc(N3CCc4ncc(-c5ccccc5OC(C)C)cc4C3)c(C)c(C)c2n1 [Compound 1-280, 7-(3-(2-isopropoxyphenyl)-7,8-dihydro-1,6-naphthyridin-6(5H)-yl)-2,8,9-trimethyl-4H-pyrimido[1,2-b]pyridazin-4-one]
84% | 311 nM | Cc1cc(=O)n2nc(N3CCc4ncc(-c5cnn6ccccc56)cc4C3)c(C)cc2n1 [Compound 1-288, 2,8-dimethyl-7-(3-(pyrazolo[1,5-a]pyridin-3-yl)-7,8-dihydro-1,6-naphthyridin-6(5H)-yl)-4H-pyrimido[1,2-b] pyridazin-4-one]
84% | 685 nM | COc1cnccc1-c1cnc2c(c1)CN(c1nn3c(=O)ccnc3cc1C)CC2 [Compound 1-50, 7-(3-(3-methoxypyridin-4-yl)-7,8-dihydro-1,6-naphthyridin-6(5H)-yl)-8-methyl-4H-pyrimido[1,2-b]pyridazin-4-one]
69% | 1140 nM | Cc1cc2nccc(=O)n2nc1N1CCc2ncc(-c3ccccn3)cc2C1 [Compound 1-349, 8-methyl-7-(3-(pyridin-2-yl)-7,8-dihydro-1,6-naphthyridin-6(5H)-yl)-4H-pyrimido[1,2-b] pyridazin-4-one]
72% | 2310 nM | COc1ncc(-c2cnc3c(c2)CN(c2nn4c(=O)cc(C(F)F)nc4c(C)c2C)CC3)cc1Cl [Compound 1-168, 7-(3-(5-chloro-6-methoxypyridin-3-yl)-7,8-dihydro-1,6-naphthyridin-6(5H)-yl)-2-(difluoromethyl)-8,9-dimethyl-4H-pyrimido[1,2-b]pyridazin-4-one]
75% | 363 nM | Cc1cc2ncc(C3CCCC3)c(=O)n2nc1N1CCc2ncc(C(F)(F)F)cc2C1 [Compound 1-23, 3-Cyclopentyl-8-methyl-7-(3-(trifluoromethyl)-7,8-dihydro-1,6-naphthyridin-6(5H)-yl)-4H-pyrimido[1,2-b]pyridazin-4-one]
58% |  | Cc1cc2nccc(=O)n2nc1N1CCc2ncc(Nc3ccc(C4CC4)nc3)cc2C1 [Compound 2-125, 7-(3-((6-cyclopropylpyridin-3-yl)amino)-7,8-dihydro-1,6-naphthyridin-6(5H)-yl)-8-methyl-4H-pyrimido[1,2-b]pyridazin-4-one]
56% | 97 nM | Cc1cc(=O)n2nc(N3CCc4ncc(-n5cccn5)cc4C3)c(C)cc2n1 [Compound 2-22, 7-(3-(1H-pyrazol-1-yl)-7,8-dihydro-1,6-naphthyridin-6(5H)-yl)-2,8-dimethyl-4H-pyrimido[1,2-b]pyridazin-4-one]
86% | 40 nM | Cc1cc2nc(C)c(Cl)c(=O)n2nc1N1CCc2ncc(C(F)(F)F)cc2C1 [Compound 1-28, 3-chloro-2,8-dimethyl-7-(3-(trifluoromethyl)-7,8-dihydro-1,6-naphthyridin-6(5H)-yl)-4H-pyrimido[1,2-b]pyridazin-4-one]
83% | 230 nM | Cc1c(N2CCc3ncc(-c4cc(F)ncc4F)cc3C2)nn2c(=O)ccnc2c1C [Compound 1-268, 7-(3-(2,5-difluoropyridin-4-yl)-7,8-dihydro-1,6-naphthyridin-6(5H)-yl)-8,9-dimethyl-4H-pyrimido[1,2-b]pyridazin-4-one]
80% | 1820 nM | Cc1cc2nccc(=O)n2nc1N1CCc2ncc(NCC3CCOCC3)cc2C1 [Compound 2-91, 8-methyl-7-(3-(((tetrahydro-2H-pyran-4-yl)methyl)amino)-7,8-dihydro-1,6-naphthyridin-6(5H)-yl)-4H-pyrimido[1,2-b]pyridazin-4-one]
91% | 901 nM | Cc1c(N2CCc3ncc(C4CCOCC4)cc3C2)nn2c(=O)ccnc2c1C [Compound 1-429, 8,9-Dimethyl-7-(3-(tetrahydro-2H-pyran-4-yl)-7,8-dihydro-1,6-naphthyridin-6(5H)-yl)-4H-pyrimido[1,2-b]pyridazin-4-one]
79% | 152 nM | Cc1ccc(-c2cnc3c(c2)CN(c2nn4c(=O)c(Br)cnc4cc2C)CC3)cn1 [Compound 1-78, 3-bromo-8-methyl-7-(3-(6-methylpyridin-3-yl)-7,8-dihydro-1,6-naphthyridin-6(5H)-yl)-4H-pyrimido[1,2-b]pyridazin-4-one]
96% | 16 nM | [2H]C1([2H])Cc2ncc(Nc3cc(C)ncc3F)cc2C([2H])([2H])N1c1nn2c(=O)ccnc2cc1C [Compound 2-162, 7-(3-((5-fluoro-2-methylpyridin-4-yl)amino)-7,8-dihydro-1,6-naphthyridin-6(5H)-yl-5,5,7,7-d4)-8-methyl-4H-pyrimido[1,2-b]pyridazin-4-one]
94% | 21 nM | Cc1cc(Nc2cnc3c(c2)CN(c2nn4c(=O)ccnc4cc2C)CC3)c(F)cn1 [Compound 2-155, 7-(3-((5-fluoro-2-methylpyridin-4-yl)amino)-7,8-dihydro-1,6-naphthyridin-6(5H)-yl)-8-methyl-4H-pyrimido[1,2-b]pyridazin-4-one]
86% | 206 nM | Cc1c(N2CCc3ncc(C(F)(F)F)cc3C2)nn2c(=O)cc(C(F)(F)F)nc2c1C [Compound 1-39, 8,9-dimethyl-2-(trifluoromethyl)-7-(3-(trifluoromethyl)-7,8-dihydro-1,6-naphthyridin-6(5H)-yl)-4H-pyrimido[1,2-b]pyridazin-4-one]
77% | 850 nM | Cc1cc(=O)n2nc(N3CCc4ncc(N5CC6CC5CO6)cc4C3)c(C)cc2n1 (stereo not drawn) [Compound 2-42, 7-(3-(2-oxa-5-azabicyclo[2.2.1]heptan-5-yl)-7,8-dihydro-1,6-naphthyridin-6(5H)-yl)-2,8-dimethyl-4H-pyrimido[1,2-b]pyridazin-4-one]
64% | 299 nM | COCc1cc(=O)n2nc(N3CCc4ncc(-c5ccc(OC(F)F)nc5)cc4C3)c(C)c(C)c2n1 [Compound 1-373, 7-(3-(6-(difluoromethoxy)pyridin-3-yl)-7,8-dihydro-1,6-naphthyridin-6(5H)-yl)-2-(methoxymethyl)-8,9-dimethyl-4H-pyrimido[1,2-b]pyridazin-4-one]
62% | 563 nM | Cc1cc2nccn2cc1-c1cnc2c(c1)CN(c1nn3c(=O)ccnc3c(C)c1C)CC2 [Compound 1-296, 8,9-dimethyl-7-(3-(7-methylimidazo[1,2-a]pyridin-6-yl)-7,8-dihydro-1,6-naphthyridin-6(5H)-yl)-4H-pyrimido[1,2-b]pyridazin-4-one]
95% | 648 nM | Cc1cc(=O)n2nc(N3CCc4ncc(-c5cnn6ccccc56)cc4C3)c(C)c(C)c2n1 [Compound 1-181, 2,8,9-trimethyl-7-(3-(pyrazolo[1,5-a]pyridin-3-yl)-7,8-dihydro-1,6-naphthyridin-6(5H)-yl)-4H-pyrimido[1,2-b]pyridazin-4-one]
87% | 70 nM | COCc1c(N2CCc3ncc(-c4ccc(C)nc4)cc3C2)nn2c(=O)ccnc2c1C [Compound 1-271, 8-(methoxymethyl)-9-methyl-7-(3-(6-methylpyridin-3-yl)-7,8-dihydro-1,6-naphthyridin-6(5H)-yl)-4H-pyrimido[1,2-b] pyridazin-4-one]
78% | 1520 nM | Cc1cc(C#N)ncc1-c1cnc2c(c1)CN(c1nn3c(=O)ccnc3cc1C)CC2 [Compound 1-355, 4-methyl-5-(6-(8-methyl-4-oxo-4H-pyrimido[1,2-b]pyridazin-7-yl)-5,6,7,8-tetrahydro-1,6-naphthyridin-3-yl)picolinonitrile]
84% | 2 nM | [2H]C1([2H])Cc2ncc(Nc3ccccc3F)cc2C([2H])([2H])N1c1nn2c(=O)ccnc2cc1C [Compound 2-166, 7-(3-((2-fluorophenyl)amino)-7,8-dihydro-1,6-naphthyridin-6(5H)-yl-5,5,7,7-d4)-8-methyl-4H-pyrimido[1,2-b]pyridazin-4-one]
